Results: patent publication US20050113450A1, “Antibacterial agents” (priority 2002, published 2005)
Values after ≈ are worked out from the molar mass of the structure shown.

Tested on: SA 9218
Experiment: MIC by standard agar dilution method
Format: cell-based
Conditions: Mueller Hinton agar, 10^4 to 10^5 cells per spot, incubated overnight at 35° C., lowest concentration that inhibits visible growth
Excerpt: The antibacterial agents of this invention have useful activity against a variety of organisms. The in vitro activity of compounds of this invention can be assessed by standard testing procedures such as the determination of minimum inhibitory concentration (MIC) by agar dilution as described in “Approved Standard. Methods for Dilution Antimicrobial Susceptibility Tests for Bacteria That Grow Aerobically”, 3rd. ed., published 1993 by the National Committee for Clinical Laboratory Standards, Villanova, Pa., USA. The in vitro MICs of test compounds were determined by a standard agar dilution method. A stock drug solution of each analog was prepared in the preferred solvent, usually DMSO:H2O (1:3). Serial 2-fold dilutions of each sample are made using 1.0 ml aliquots of sterile distilled water. To each 1.0 ml aliquot of drug was added 9 ml of molten Mueller Hinton agar medium. The drug-supplemented agar was mixed, poured into 15×100 mm petri dishes, and allowed to solidify and dry prior to inoculation. Vials of each of the test organisms are maintained frozen in the vapor phase of a liquid nitrogen freezer. Test cultures are grown overnight at 35° C. on the medium appropriate for the organism. Colonies are harvested with a sterile swab, and cell suspensions are prepared in Trypticase Soy broth (TSB) to equal the turbidity of a 0.5 McFarland standard. A 1:20 dilution of each suspension was made in TSB. The plates containing the drug supplemented agar are inoculated with a 0.001 ml drop of the cell suspension using a Steers replicator, yielding approximately 10^4 to 10^5 cells per spot. The plates are incubated overnight at 35° C. Following incubation the Minimum Inhibitory Concentration (MIC μg/ml), the lowest concentration of drug that inhibits visible growth of the organism, was read and recorded.

SMILES | MIC [µg/mL]
CCON=C(c1ccc(NC(=O)c2ccc(S(=O)(=O)N3CCc4ccccc43)cc2)c(C(=O)O)c1)C(C)C | 64 (≈ 119 µM)
O=C(Nc1ccc(I)cc1C(=O)O)c1ccc(S(=O)(=O)N2CCSC2)cc1 | 32 (≈ 61.7 µM)
N#CC1(c2ccccc2)CCN(S(=O)(=O)c2ccc(C(=O)Nc3ccc(I)cc3C(=O)O)cc2)CC1 | 4 (≈ 6.5 µM)
O=C(Nc1ccc(C(=O)C2CCCC2)cc1C(=O)O)c1cccc(S(=O)(=O)N2CCc3ccc(Cl)cc32)c1 | 32 (≈ 57.9 µM)
COC(=O)CCCC(=O)c1ccc(NC(=O)c2cccc(S(=O)(=O)N3CCSC3)c2)c(C(=O)O)c1 | > 128
O=C(Nc1ccc(I)cc1C(=O)O)c1cccc(S(=O)(=O)N2CC=CC2)c1 | 8 (≈ 16.1 µM)
CCCCCC(=O)c1ccc(NC(=O)c2ccc(S(=O)(=O)N3CCc4ccc(Cl)cc43)cc2)c(C(=O)O)c1 | 8 (≈ 14.4 µM)
O=C(Nc1ccc(C(=O)C2CCCC2)cc1C(=O)O)c1ccc(S(=O)(=O)N2CCc3ccc(Cl)cc32)cc1 | 16 (≈ 28.9 µM)
O=C(Nc1ccc(Cl)cc1C(=O)O)c1cccc(I)c1 | 8 (≈ 19.9 µM)
O=C(Nc1ccc(Cl)cc1C(=O)O)c1ccc(I)cc1 | 2 (≈ 4.98 µM)
O=C(Nc1ccc(Cl)cc1C(=O)O)c1ccc(I)c(I)c1 | 2 (≈ 3.79 µM)
O=C(Nc1ccc(Cl)cc1C(=O)O)c1ccc(C(=O)c2ccccc2)cc1 | 4 (≈ 10.5 µM)
CCCCCC(=O)c1cccc(C(=O)Nc2ccc(Cl)cc2C(=O)O)c1 | 8 (≈ 21.4 µM)
O=C(Nc1ccc(Cl)cc1C(=O)O)c1cccc(C(=O)c2ccc(Cl)cc2)c1 | 4 (≈ 9.66 µM)
O=C(Nc1ccc(Cl)cc1C(=O)O)c1cccc(C(=O)C2CCCC2)c1 | 8 (≈ 21.5 µM)
COc1ccc(C(=O)c2cccc(C(=O)Nc3ccc(Cl)cc3C(=O)O)c2)cc1 | 8 (≈ 19.5 µM)
COc1ccc(C(=O)c2ccc(C(=O)Nc3ccc(Cl)cc3C(=O)O)cc2)cc1 | 2 (≈ 4.88 µM)
O=C(Nc1ccc(Cl)cc1C(=O)O)c1ccc(C(=O)c2ccc(Cl)cc2)cc1 | 4 (≈ 9.66 µM)
Cl.NCc1ccc(C(=O)Nc2ccc(Br)cc2C(=O)O)cc1S(=O)(=O)N1CCc2ccccc21 | > 128
CCCCCOc1cccc(C(=O)Nc2ccc(Br)cc2C(=O)O)c1 | 8 (≈ 19.7 µM)
CC(C)Oc1cccc(C(=O)Nc2ccc(Br)cc2C(=O)O)c1 | 2 (≈ 5.29 µM)
CCCCCOc1ccc(C(=O)Nc2ccc(Br)cc2C(=O)O)cc1 | 16 (≈ 39.4 µM)
CC(C)Oc1ccc(C(=O)Nc2ccc(Br)cc2C(=O)O)cc1 | 64 (≈ 169 µM)

SMILES | MIC [µg/mL]
C=CCOc1cccc(C(=O)Nc2ccc(Br)cc2C(=O)O)c1 | 8 (≈ 21.3 µM)
O=C(Nc1ccc(Br)cc1C(=O)O)c1ccc(OCc2ccccc2)cc1 | 16 (≈ 37.5 µM)
O=C(Nc1ccc(Br)cc1C(=O)O)c1cccc(S(=O)(=O)NC2Cc3ccccc3C2)c1 | 1 (≈ 1.94 µM)
Cc1ccc(C(=O)Nc2ccc(Br)cc2C(=O)O)cc1S(=O)(=O)NCCc1ccc(N)cc1 | 8 (≈ 15 µM)
O=C(Nc1ccc(Br)cc1C(=O)O)c1cccc(S(=O)(=O)N2CCN(c3cccc(C(F)(F)F)c3)CC2)c1 | 16 (≈ 26.1 µM)
COc1ccc(C(=O)Nc2ccc(Br)cc2C(=O)O)cc1S(=O)(=O)N1CCN(c2ccc(Cl)cc2)CC1 | 8 (≈ 13.1 µM)
CCN(Cc1ccncc1)S(=O)(=O)c1ccc(C)c(C(=O)Nc2ccc(Br)cc2C(=O)O)c1 | > 128
O=C(NCCOc1ccc(C(=O)Nc2ccc(Br)cc2C(=O)O)cc1)OCc1ccccc1 | 64 (≈ 125 µM)
COc1cc(COc2ccc(C(=O)Nc3ccc(Br)cc3C(=O)O)cc2)cc(OC)c1 | 8 (≈ 16.5 µM)
Cc1ccc(S(=O)(=O)Nc2cccc(C(=O)Nc3ccc(Br)cc3C(=O)O)c2)cc1 | 0.5 (≈ 1.02 µM)
O=C(Nc1ccc(Br)cc1C(=O)O)c1ccc(OCCN2CCCC2=O)cc1 | > 128
O=C(Nc1ccc(Cl)cc1C(=O)O)c1ccc(C(=NOCc2ccccc2)c2ccco2)cc1 | 32 (≈ 67.4 µM)
O=C(Nc1ccc(Cl)cc1C(=O)O)c1cccc(C(NCc2cccc(Cl)c2)c2ccccc2)c1 (stereo not drawn) | 16 (≈ 31.7 µM)
CON=C(c1cccc(C(=O)Nc2ccc(Cl)cc2C(=O)O)c1)c1ccco1 | 16 (≈ 40.1 µM)
CCC(CC)C(=O)c1cccc(C(=O)Nc2ccc(Cl)cc2C(=O)O)c1 | 8 (≈ 21.4 µM)
O=C(Nc1ccc(Cl)cc1C(=O)O)c1cccc(C(=NO)c2cccnc2)c1 | 4 (≈ 10.1 µM)
O=C(Nc1ccc(Cl)cc1C(=O)O)c1cccc(C(NC2CCCC2)c2ccccc2)c1 (stereo not drawn) | 4 (≈ 8.91 µM)
CCCNC(c1cccc(C(=O)Nc2ccc(Cl)cc2C(=O)O)c1)c1cccc(S(C)(=O)=O)c1 (stereo not drawn) | 32 (≈ 63.9 µM)
CS(=O)(=O)c1cccc(C(=O)c2cccc(C(=O)Nc3ccc(Cl)cc3C(=O)O)c2)c1 | 16 (≈ 34.9 µM)
O=C(Nc1ccc(Cl)cc1C(=O)O)c1cccc(C(=NO)C2CCCO2)c1 (stereo not drawn) | 16 (≈ 41.2 µM)
O=C(Nc1ccc(Cl)cc1C(=O)O)c1ccc(C(=O)c2c[nH]c3ccccc23)cc1 | 8 (≈ 19.1 µM)
CCCNC(c1cccnc1)c1cccc(C(=O)Nc2ccc(Cl)cc2C(=O)O)c1 (stereo not drawn) | 8 (≈ 18.9 µM)

Further compounds by falling MIC, results first:

MIC [µg/mL] | SMILES
128 (≈ 236 µM) | O=C(Nc1ccc(C(=NO)c2ccccc2)cc1C(=O)O)c1ccc(S(=O)(=O)N2CCc3ccccc32)cc1
128 (≈ 464 µM) | O=C(Nc1ccc(Cl)cc1C(=O)O)c1ccccc1
128 (≈ 305 µM) | O=C(Nc1ccc(Br)cc1C(=O)O)c1ccc(OCC2CCOC2)cc1 (stereo not drawn)
128 (≈ 342 µM) | O=C(Nc1ccc(Cl)cc1C(=O)O)c1cccc(C(=O)C2CCOC2)c1 (stereo not drawn)
64 (≈ 109 µM) | COC(=O)CCCC(=O)c1ccc(NC(=O)c2cccc(S(=O)(=O)N3CCc4ccc(Cl)cc43)c2)c(C(=O)O)c1
64 (≈ 123 µM) | Nc1ccc(CCNS(=O)(=O)c2ccc(C(=O)Nc3ccc(Br)cc3C(=O)O)cc2)cc1
64 (≈ 132 µM) | COC(=O)C(Oc1ccc(C(=O)Nc2ccc(Br)cc2C(=O)O)cc1)c1ccccc1 (stereo not drawn)
64 (≈ 171 µM) | O=C(Nc1ccc(Cl)cc1C(=O)O)c1cccc(C(=O)C2CCCO2)c1 (stereo not drawn)
32 (≈ 64.2 µM) | O=C(Nc1ccc(I)cc1C(=O)O)c1ccc(S(=O)(=O)N2CC=CC2)cc1
32 (≈ 54 µM) | O=C(Nc1ccc(I)cc1C(=O)O)c1cccc(S(=O)(=O)N2CCN(c3ccccn3)CC2)c1
32 (≈ 68.1 µM) | COc1cc(C(=O)c2cccc(C(=O)Nc3ccc(Cl)cc3C(=O)O)c2)cc(OC)c1OC
32 (≈ 69.4 µM) | Cc1ncsc1CCOc1ccc(C(=O)Nc2ccc(Br)cc2C(=O)O)cc1
32 (≈ 80.8 µM) | O=C(Nc1ccc(Cl)cc1C(=O)O)c1ccc(C(=NO)c2cccnc2)cc1
32 (≈ 69.9 µM) | CS(=O)(=O)c1cccc(C(=O)c2ccc(C(=O)Nc3ccc(Cl)cc3C(=O)O)cc2)c1
16 (≈ 30.4 µM) | CCCC(=O)c1ccc(NC(=O)c2ccc(S(=O)(=O)N3CCc4ccc(Cl)cc43)cc2)c(C(=O)O)c1
16 (≈ 28.1 µM) | CCON=C(c1ccccc1)c1ccc(NC(=O)c2ccc(S(=O)(=O)N3CCc4ccccc43)cc2)c(C(=O)O)c1
16 (≈ 37.8 µM) | CN(C)c1ccc(C(=O)c2ccc(C(=O)Nc3ccc(Cl)cc3C(=O)O)cc2)cc1
16 (≈ 25.5 µM) | Cc1ccc(C(=O)Nc2ccc(Br)cc2C(=O)O)cc1S(=O)(=O)N1CCN(c2cccc(C(F)(F)F)c2)CC1
16 (≈ 32.9 µM) | COc1cc(COc2cccc(C(=O)Nc3ccc(Br)cc3C(=O)O)c2)cc(OC)c1
16 (≈ 32.2 µM) | O=C(Nc1ccc(Cl)cc1C(=O)O)c1cccc(C(NC2CCc3ccccc32)c2ccccc2)c1 (stereo not drawn)
16 (≈ 38.8 µM) | CCCNC(c1cccc(C(=O)Nc2ccc(Cl)cc2C(=O)O)c1)c1ccco1 (stereo not drawn)

MIC [µg/mL] | SMILES
16 (≈ 44.2 µM) | CCOCC(=O)c1ccc(C(=O)Nc2ccc(Cl)cc2C(=O)O)cc1
16 (≈ 33.8 µM) | CS(=O)(=O)c1cccc(C(=NO)c2ccc(C(=O)Nc3ccc(Cl)cc3C(=O)O)cc2)c1
8 (≈ 15.4 µM) | O=C(Nc1ccc(I)cc1C(=O)O)c1cccc(S(=O)(=O)N2CCSC2)c1
8 (≈ 21.6 µM) | O=C(Nc1ccc(Cl)cc1C(=O)O)c1cccc(C(=O)c2ccco2)c1
8 (≈ 18 µM) | O=C(COc1ccc(Cl)cc1)c1cccc(C(=O)Nc2ccc(Cl)cc2C(=O)O)c1
8 (≈ 16.1 µM) | O=C(Nc1ccc(Cl)cc1C(=O)O)c1cccc(C(NCc2cccc(Cl)c2)c2ccco2)c1 (stereo not drawn)
8 (≈ 18.9 µM) | CCCNC(c1ccccc1)c1cccc(C(=O)Nc2ccc(Cl)cc2C(=O)O)c1 (stereo not drawn)
8 (≈ 17.9 µM) | CCCNC(c1cccc(C#N)c1)c1cccc(C(=O)Nc2ccc(Cl)cc2C(=O)O)c1 (stereo not drawn)
8 (≈ 19.1 µM) | N#Cc1cccc(C(=NO)c2ccc(C(=O)Nc3ccc(Cl)cc3C(=O)O)cc2)c1
4 (≈ 7.93 µM) | O=C(Nc1ccc(-c2cccs2)cc1C(=O)O)c1ccc(S(=O)(=O)N2CCc3ccccc32)cc1
4 (≈ 10.7 µM) | CCCCCC(=O)c1ccc(C(=O)Nc2ccc(Cl)cc2C(=O)O)cc1
4 (≈ 9.46 µM) | CN(C)c1ccc(C(=O)c2cccc(C(=O)Nc3ccc(Cl)cc3C(=O)O)c2)cc1
4 (≈ 9.44 µM) | O=C(Nc1ccc(Cl)cc1C(=O)O)c1cccc(C(=O)c2ccc3c(c2)OCO3)c1
4 (≈ 8.51 µM) | COc1cc(C(=O)c2ccc(C(=O)Nc3ccc(Cl)cc3C(=O)O)cc2)cc(OC)c1OC
4 (≈ 9 µM) | O=C(COc1ccc(Cl)cc1)c1ccc(C(=O)Nc2ccc(Cl)cc2C(=O)O)cc1
4 (≈ 10.8 µM) | O=C(Nc1ccc(Cl)cc1C(=O)O)c1ccc(C(=O)c2ccco2)cc1
4 (≈ 10.7 µM) | CCC(CC)C(=O)c1ccc(C(=O)Nc2ccc(Cl)cc2C(=O)O)cc1
2 (≈ 4.72 µM) | O=C(Nc1ccc(Cl)cc1C(=O)O)c1ccc(C(=O)c2ccc3c(c2)OCO3)cc1
2 (≈ 3.67 µM) | COc1ccc(C(=O)Nc2ccc(Br)cc2C(=O)O)cc1S(=O)(=O)NC1Cc2ccccc2C1
0.25 (≈ 0.472 µM) | Cc1ccc(C(=O)Nc2ccc(Br)cc2C(=O)O)cc1S(=O)(=O)NC1Cc2ccccc2C1
0.25 (≈ 0.421 µM) | O=C(Nc1ccc(Br)cc1C(=O)O)c1cc(S(=O)(=O)NC2Cc3ccccc3C2)ccc1Br
